In ChEMBL document CHEMBL1201862, “PubChem BioAssay data set” (2004):
Active and inactive are the calls of the source.

Assays:
[1] = molecular target: 5-hydroxytryptamine receptor 2A (Mus musculus, UniProt P35363); type: functional, cell-based;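 note: CHO-K1 cells with tagged receptor and beta-arrestin; agonist potency measured as compound-induced activation of the receptor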
Mu-type opioid receptor = Mu-type opioid receptor (Homo sapiens, UniProt P35372); type: functional, cell-based;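 note: U2OS cells with beta-arrestin recruitment to OPRM1 by beta-gal complementation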
Sequence of Mu-type opioid receptor (P35372 whole entry): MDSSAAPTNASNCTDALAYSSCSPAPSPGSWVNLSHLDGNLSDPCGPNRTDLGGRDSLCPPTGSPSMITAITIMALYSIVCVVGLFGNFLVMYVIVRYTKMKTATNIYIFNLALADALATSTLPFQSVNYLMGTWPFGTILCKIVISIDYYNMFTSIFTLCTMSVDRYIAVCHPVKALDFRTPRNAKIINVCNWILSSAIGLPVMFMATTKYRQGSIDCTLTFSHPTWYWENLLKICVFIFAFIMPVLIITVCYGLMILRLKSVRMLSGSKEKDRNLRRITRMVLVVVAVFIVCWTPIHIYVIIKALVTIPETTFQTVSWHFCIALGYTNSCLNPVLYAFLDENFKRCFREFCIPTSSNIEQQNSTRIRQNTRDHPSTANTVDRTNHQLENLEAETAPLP

Streptokinase A = molecular target: T1, Streptokinase A (Streptococcus pyogenes serotype M1, UniProt P10520); assay: S. pyogenes streptokinase expression inhibitors, potency, dose response, plasminogen activation absorbance, OD405 (AID 1914); type: functional, Streptococcus pyogenes M1 GAS;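 note: secreted streptokinase activity via plasminogen activation per viability signal from cell pellet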
T1 sequence (P10520 whole entry): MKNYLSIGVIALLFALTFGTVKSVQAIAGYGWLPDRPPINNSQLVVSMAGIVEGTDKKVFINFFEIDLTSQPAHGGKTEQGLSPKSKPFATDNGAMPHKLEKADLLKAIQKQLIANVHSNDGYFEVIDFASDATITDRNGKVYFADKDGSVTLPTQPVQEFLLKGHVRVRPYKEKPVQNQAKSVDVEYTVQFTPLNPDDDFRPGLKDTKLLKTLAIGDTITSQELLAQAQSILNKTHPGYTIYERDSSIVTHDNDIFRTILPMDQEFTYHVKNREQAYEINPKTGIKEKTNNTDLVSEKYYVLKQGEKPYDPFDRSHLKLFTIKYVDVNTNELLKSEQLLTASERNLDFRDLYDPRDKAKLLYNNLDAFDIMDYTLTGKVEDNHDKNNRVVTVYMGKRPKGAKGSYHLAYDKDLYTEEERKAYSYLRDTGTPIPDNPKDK

[2] = molecular target: T2, Heat shock factor protein 1 (Mus musculus, UniProt P38532); assay: inhibition of MG132-induced HSE-luciferase signal, confirmation, cell-based, NIH3T3, luminescence, dose retest (AID 2382); type: functional;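 note: NIH3T3 fibroblasts with HSF1-driven luciferase reporter stressed by proteasome inhibitor MG132; luminescence from HSF1-driven luciferase expression after 8 hours of MG132 stress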
T2 sequence (P38532 whole entry): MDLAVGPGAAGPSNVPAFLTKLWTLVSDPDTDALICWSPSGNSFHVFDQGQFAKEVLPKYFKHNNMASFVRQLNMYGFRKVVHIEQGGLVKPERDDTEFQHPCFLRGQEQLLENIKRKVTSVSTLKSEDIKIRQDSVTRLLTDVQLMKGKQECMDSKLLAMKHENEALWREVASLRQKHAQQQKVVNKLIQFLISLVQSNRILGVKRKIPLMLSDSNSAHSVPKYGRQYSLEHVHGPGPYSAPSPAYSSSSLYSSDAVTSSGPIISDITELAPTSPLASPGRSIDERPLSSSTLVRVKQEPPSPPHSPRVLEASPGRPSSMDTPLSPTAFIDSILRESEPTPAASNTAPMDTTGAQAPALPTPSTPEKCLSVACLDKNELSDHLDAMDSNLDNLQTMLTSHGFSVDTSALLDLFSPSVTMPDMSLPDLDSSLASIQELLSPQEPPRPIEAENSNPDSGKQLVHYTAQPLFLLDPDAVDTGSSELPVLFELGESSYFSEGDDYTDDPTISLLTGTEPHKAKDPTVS

[3] = molecular target: T3, DNA repair protein RAD52 homolog (Homo sapiens, UniProt P43351); type: functional, biochemical
T3 sequence (P43351 whole entry): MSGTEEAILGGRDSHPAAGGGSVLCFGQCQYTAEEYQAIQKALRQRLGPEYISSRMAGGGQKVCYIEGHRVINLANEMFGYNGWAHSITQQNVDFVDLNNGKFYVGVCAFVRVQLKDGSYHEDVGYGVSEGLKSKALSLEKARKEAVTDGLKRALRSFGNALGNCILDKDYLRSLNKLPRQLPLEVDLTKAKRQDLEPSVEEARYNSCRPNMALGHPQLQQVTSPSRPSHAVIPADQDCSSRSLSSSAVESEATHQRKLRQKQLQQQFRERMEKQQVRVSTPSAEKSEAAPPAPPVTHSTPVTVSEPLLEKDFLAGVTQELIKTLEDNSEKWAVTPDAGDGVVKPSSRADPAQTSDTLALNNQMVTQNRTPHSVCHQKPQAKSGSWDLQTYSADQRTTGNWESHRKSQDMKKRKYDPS

Streptococcus = assay: Group A Streptococcus viability loss, dose response, counter-screen for streptokinase expression inhibitor project, luminescence, BacTiterGlo (AID 1915); type: functional, organism-based;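 note: potency for reduction of bacterial viability or growth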
[4] = inhibitors of intracellular T. cruzi replication, confirmation, NIH3T3 host cells, beta-gal luminescence (AID 2044); type: functional, cell-based;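 note: intracellular parasites grown in NIH/3T3 mouse fibroblasts as host cells; luminescent beta-galactosidase reporter signal from transgenic T. cruzi replicating inside host cells; inhibitors lower the luminescence signal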
[5] = cytotoxicity toward NIH3T3 fibroblasts, dose response, counter-screen, cell-based, ATP luminescence, mouse fibroblasts (AID 2010); type: functional;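 note: cells exposed to compound for about 90 hours before reading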
[6] = test system: Streptococcus sp. 'group A'; assay: growth inhibition of control SK(-) GAS strain, dose response, counter-screen for streptokinase expression inhibitor project, luminescence, kanamycin, BacTiterGlo, confirmation (AID 1900); type: functional, organism-based
[7] = molecular target: T4, Corticotropin-releasing factor receptor 2/Corticotropin-releasing factor-binding protein (Homo sapiens, UniProt P24387+Q13324); assay: activators of CRF receptor 2 with binding protein – uHTS hits, confirmation (AID 602473); type: functional; details: read-out: EC50_Mean
T4 sequence (Q13324 whole entry): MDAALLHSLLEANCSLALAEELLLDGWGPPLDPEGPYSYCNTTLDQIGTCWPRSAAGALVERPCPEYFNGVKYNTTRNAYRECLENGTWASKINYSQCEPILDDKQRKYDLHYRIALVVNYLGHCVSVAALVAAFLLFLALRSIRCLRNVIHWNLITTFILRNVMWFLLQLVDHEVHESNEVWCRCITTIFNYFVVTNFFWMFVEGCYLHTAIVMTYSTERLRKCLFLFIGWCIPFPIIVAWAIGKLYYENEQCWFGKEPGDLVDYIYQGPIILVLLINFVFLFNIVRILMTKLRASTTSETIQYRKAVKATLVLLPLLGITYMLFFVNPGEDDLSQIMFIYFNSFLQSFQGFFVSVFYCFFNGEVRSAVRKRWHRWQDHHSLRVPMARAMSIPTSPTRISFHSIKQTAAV
T4 sequence (P24387 whole entry): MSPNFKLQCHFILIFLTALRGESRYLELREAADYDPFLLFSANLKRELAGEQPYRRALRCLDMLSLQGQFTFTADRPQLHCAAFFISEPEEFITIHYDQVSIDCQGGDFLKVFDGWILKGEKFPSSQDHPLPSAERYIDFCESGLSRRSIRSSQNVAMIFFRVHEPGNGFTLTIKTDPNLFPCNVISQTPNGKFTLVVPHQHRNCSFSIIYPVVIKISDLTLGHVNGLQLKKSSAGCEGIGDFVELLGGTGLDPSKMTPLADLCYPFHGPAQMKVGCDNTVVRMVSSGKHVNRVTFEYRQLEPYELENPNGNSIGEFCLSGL

[8] = CEM21 lymphoblast cell cytotoxicity, dose response, cytotoxicity control for viral fusion inhibitor project, CellTiter-Glo luminescence, cherry-picked (AID 652042); type: functional, cell-based;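 note: potency for signal decrease meaning cytotoxicity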
[9] = Luminescence Cell-Based Dose Response HTS to Identify Inhibitors of 5'UTR Stem-Loop Driven Prion Protein mRNA Translation in H4 Neuroglioblastoma Cells. [Related pubchem assays: 1827 (Project Summary), 1813 (Primary HTS)]; type: functional
[10] = molecular target: T4, Corticotropin-releasing factor receptor 2/Corticotropin-releasing factor-binding protein; assay: Dose Response confirmation of uHTS hits for small molecule antagonists of the CRF-binding protein and CRF-R2 receptor complex.; type: functional; details: read-out: IC50_Mean
[11] = inhibitors of SNCA 5'UTR-driven reporter translation, confirmation, H4 neuroglioma cells, luminescence (AID 1988); type: functional, cell-based
[12] = inhibitors of firefly luciferase expression or activity, dose response, H4 neuroglioma cells, luminescence (AID 1990); type: functional, cell-based
[13] = inhibitors of clade B AD8 Env fusion, dose response, cell-based, cherry-pick (AID 652062); type: functional;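 note: luciferase signal from cell-cell fusion driven by HIV-1 clade B AD8 Env; potency is for inhibitors of fusion seen as a drop in luminescence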
[14] = molecular target: T5, Replicative DNA helicase DnaB (Mycobacterium tuberculosis, UniProt P9WMR3); assay: DnaB intein splicing inhibitors, dose response, biochemical, cell-free fluorescence (AID 449749); type: functional
T5 sequence (P9WMR3 whole entry): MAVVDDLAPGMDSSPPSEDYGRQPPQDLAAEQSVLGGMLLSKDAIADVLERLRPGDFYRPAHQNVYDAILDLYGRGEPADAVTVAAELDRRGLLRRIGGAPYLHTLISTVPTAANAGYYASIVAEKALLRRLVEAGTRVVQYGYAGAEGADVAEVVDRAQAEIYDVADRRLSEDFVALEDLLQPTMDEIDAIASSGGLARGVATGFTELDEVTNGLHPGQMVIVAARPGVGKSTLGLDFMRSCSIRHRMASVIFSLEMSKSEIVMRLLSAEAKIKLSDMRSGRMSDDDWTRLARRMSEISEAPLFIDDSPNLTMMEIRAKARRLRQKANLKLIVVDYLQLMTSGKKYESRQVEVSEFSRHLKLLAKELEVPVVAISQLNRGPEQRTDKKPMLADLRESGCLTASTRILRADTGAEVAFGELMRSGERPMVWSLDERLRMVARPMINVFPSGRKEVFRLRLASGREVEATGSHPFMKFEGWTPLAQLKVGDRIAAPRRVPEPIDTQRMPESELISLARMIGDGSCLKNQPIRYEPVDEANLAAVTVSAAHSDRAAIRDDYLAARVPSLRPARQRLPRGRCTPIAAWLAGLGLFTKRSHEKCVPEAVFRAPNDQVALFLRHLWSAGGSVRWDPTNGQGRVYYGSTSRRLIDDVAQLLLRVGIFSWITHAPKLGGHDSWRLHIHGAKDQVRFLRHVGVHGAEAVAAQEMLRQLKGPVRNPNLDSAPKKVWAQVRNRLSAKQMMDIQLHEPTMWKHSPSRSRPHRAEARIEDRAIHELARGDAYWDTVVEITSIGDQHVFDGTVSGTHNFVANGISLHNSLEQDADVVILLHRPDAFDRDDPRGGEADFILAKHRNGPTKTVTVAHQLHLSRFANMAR

Protein RecA = molecular target: T6, Protein RecA (Mycobacterium tuberculosis, UniProt P9WHJ3); assay: Fluorescence Cell-Free Homogeneous Dose Retest to Identify Inhibitors of RecA-Intein Splicing Activity. [Related pubchem assays (depositor defined):AID2097, AID2223, AID489010, AID492950]; type: functional
T6 sequence (P9WHJ3 whole entry): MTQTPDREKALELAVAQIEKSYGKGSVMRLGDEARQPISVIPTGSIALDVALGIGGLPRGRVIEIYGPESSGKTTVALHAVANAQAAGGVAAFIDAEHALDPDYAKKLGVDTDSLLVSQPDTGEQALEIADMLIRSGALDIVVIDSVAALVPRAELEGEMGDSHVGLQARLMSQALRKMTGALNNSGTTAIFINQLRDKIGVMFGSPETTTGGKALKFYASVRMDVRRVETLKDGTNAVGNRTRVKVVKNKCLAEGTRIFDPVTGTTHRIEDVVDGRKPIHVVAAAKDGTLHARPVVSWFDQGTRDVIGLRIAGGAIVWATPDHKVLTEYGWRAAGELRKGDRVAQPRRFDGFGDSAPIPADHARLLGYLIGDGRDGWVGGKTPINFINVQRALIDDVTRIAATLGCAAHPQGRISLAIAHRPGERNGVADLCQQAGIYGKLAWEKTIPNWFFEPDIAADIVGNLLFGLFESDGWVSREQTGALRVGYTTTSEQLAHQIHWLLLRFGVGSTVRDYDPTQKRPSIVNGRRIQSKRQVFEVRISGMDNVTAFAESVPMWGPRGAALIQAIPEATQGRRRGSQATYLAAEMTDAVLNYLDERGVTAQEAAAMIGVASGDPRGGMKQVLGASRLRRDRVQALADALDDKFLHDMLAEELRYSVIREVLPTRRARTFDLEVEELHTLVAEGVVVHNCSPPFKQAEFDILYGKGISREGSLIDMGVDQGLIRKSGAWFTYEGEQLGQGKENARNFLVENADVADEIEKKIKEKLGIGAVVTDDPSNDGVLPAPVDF

[15] = molecular target: T7, Probable nicotinate-nucleotide adenylyltransferase (Staphylococcus aureus (strain N315), UniProt P65502); type: functional, Staphylococcus aureus subsp. aureus N315; details: read-out: IC50_Mean;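 for IC50 Mean: confirmatory dose-response retesting of NadD inhibitor hits first found in an ultra-high-throughput screen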
T7 sequence (P65502 whole entry): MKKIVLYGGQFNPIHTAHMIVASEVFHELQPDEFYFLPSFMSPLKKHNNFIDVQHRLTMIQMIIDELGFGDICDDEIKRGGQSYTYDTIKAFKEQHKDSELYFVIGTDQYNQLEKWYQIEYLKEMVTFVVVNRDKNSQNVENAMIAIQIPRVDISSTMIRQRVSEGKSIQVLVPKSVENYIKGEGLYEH

[16] = molecular target: T7, Probable nicotinate-nucleotide adenylyltransferase; type: functional, Staphylococcus aureus subsp. aureus N315
[17] = inhibitors of HIV Env-driven cell fusion, dose response, cherry-pick (AID 652057); type: functional, cell-based
[18] = intracellular Trypanosoma cruzi inhibitors in host cells – cell-based, plate reader, cherry-pick samples, set 3, dose response (AID 651818); type: functional;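 note: compounds incubated with infected cells for about four days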
[19] = ZM109 Env clade C HIV-1 fusion inhibitors, dose response, HeLa effector, CEM target cells, luciferase, cherry-pick (AID 652058); type: functional, cell-based
[20] = off-target signal loss in HeLa-CEM21 co-culture – HeLa F-luc CTL cells, cherry-picked, counter-screen for HIV-1 Env fusion inhibitor project, dose response (AID 652040); type: functional, cell-based;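 note: potency for signal decrease marking cytotoxic or nonspecific inhibition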

Sequence of 5-hydroxytryptamine receptor 2A (P35363 whole entry): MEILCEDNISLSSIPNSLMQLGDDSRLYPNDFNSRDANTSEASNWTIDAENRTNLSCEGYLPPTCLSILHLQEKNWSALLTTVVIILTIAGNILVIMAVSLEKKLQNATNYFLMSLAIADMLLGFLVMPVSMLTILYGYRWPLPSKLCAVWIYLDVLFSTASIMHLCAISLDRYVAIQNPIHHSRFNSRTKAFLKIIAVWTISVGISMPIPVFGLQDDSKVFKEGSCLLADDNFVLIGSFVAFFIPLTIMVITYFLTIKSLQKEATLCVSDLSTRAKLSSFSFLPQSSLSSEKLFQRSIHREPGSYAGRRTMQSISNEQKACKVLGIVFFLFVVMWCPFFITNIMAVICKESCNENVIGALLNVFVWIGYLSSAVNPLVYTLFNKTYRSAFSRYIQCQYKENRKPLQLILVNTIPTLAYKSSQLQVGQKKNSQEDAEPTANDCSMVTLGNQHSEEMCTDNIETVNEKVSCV

O=S(=O)(c1ccc(OCC(O)CN2CCN(c3ccccc3)CC2)cc1)N1CCOCC1 (stereo not drawn)
EC50 [1]: 0.481 µM (active) | EC50 (Mu-type opioid receptor): 92.4 µM (inactive)

CN(C)S(=O)(=O)c1ccc(Cl)c(NC(=O)CN2CCc3ccccc3C2)c1
EC50 [1]: 1.75 µM (active) | EC50 (Mu-type opioid receptor): 92.5 µM (inactive)

Cc1ccc2nc(N(CCCN(C)C)C(=O)c3ccc(S(=O)(=O)N4CCCCCC4)cc3)sc2c1
EC50 (Streptokinase A): > 150 µM (not active) | EC50 [2]: 109 µM (active) | AC50 [3]: 30.7 µM (active) | EC50 (Streptococcus): > 150 µM (not active) | EC50 [4]: 0.125 µM (active) | EC50 [5]: > 60 µM (not active) | EC50 [6]: > 150 µM (not active)

COC(=O)c1ccc(C(=O)NC2CCCc3c2cnn3-c2ccc(C)c(C)c2)cc1 (stereo not drawn)
EC50 [7]: > 53 µM (inactive) | AC50 [8]: 19.4 µM (active) | EC50 [9]: > 120 µM (not active) | IC50 [10]: > 47.1 µM (inactive) | EC50 [11]: 0.997 µM (active) | EC50 [12]: 8.89 µM (inconclusive) | AC50 [13]: 18.9 µM (active)

O=C(NCCN1CCN(c2ccccc2F)CC1)C1CCCN(S(=O)(=O)c2c[nH]cn2)C1 (stereo not drawn)
EC50 [1]: 0.895 µM (active) | EC50 (Mu-type opioid receptor): 92.5 µM (inactive)

O=C(Cc1cc(O)[nH]n1)N/N=C/C=C/c1ccccc1
AC50 [14]: 3.17 µM (active) | EC50 (Protein RecA): 2.76 µM (active) | IC50 [15]: 23.5 µM (active) | IC50 [16]: 7.45 µM (active)

C[C@@H]1CN([C@@H](C)CO)C(=O)c2cccc(NS(=O)(=O)c3ccc(F)cc3)c2O[C@@H]1CN(C)Cc1ccc(-c2ccccc2)cc1
AC50 [17]: 22.4 µM (active) | AC50 [8]: 48.1 µM (active) | AC50 [18]: 3.81 µM (active) | AC50 [19]: 26.5 µM (active)

COC(=O)[C@@]12C[C@@H](CC(=O)NCc3cccc(C(F)(F)F)c3)C(=O)N(Cc3ccco3)C1=CCC(C)(C)C2
AC50 [20]: 8.92 µM (active) | AC50 [17]: 4.26 µM (active) | AC50 [8]: 50 µM (active) | AC50 [19]: 8.24 µM (active) | AC50 [13]: 20.9 µM (active)
